Test results reported in patent US20260138961A1, “MODULATORS OF MITOCHONDRIAL DNA REPLICATION” (Pretzel Therapeutics, Inc., priority 2022, published 2026).

Target: T1, POLγA:G848S (Homo sapiens, UniProt P54098, G848S)
T1 sequence (P54098 1-1239 G848S): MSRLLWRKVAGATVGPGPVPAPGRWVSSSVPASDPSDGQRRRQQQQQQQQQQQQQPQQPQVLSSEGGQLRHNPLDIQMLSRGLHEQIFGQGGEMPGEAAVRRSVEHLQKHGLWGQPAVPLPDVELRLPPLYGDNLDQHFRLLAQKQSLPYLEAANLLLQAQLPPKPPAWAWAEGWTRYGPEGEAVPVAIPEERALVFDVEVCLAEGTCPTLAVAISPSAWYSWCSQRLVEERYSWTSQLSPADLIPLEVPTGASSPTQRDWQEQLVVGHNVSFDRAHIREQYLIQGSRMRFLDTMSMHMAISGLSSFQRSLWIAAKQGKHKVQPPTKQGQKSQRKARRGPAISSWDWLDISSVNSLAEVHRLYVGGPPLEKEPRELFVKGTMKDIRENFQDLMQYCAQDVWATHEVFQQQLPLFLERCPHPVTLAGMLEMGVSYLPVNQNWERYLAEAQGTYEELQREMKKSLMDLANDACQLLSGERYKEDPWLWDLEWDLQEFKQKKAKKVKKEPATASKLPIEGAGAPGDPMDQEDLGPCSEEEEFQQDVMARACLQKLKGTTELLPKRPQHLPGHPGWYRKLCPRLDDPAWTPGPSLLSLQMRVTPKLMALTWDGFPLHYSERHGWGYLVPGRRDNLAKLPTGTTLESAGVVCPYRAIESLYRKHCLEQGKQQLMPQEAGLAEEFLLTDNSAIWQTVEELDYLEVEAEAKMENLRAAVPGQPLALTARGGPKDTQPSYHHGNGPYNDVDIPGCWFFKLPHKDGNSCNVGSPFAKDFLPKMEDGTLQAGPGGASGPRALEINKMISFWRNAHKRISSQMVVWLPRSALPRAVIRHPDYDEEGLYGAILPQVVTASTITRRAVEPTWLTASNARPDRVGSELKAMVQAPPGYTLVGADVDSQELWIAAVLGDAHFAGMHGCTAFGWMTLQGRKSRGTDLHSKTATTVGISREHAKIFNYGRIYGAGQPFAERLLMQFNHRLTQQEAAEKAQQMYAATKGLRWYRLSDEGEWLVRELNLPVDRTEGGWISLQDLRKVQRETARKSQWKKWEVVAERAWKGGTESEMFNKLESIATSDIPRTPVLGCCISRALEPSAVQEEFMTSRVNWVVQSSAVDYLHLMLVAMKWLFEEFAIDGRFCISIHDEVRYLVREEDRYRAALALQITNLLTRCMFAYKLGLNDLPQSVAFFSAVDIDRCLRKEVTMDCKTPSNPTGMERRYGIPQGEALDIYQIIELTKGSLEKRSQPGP
T1 sequence (Q9UHN1 1-485 partner): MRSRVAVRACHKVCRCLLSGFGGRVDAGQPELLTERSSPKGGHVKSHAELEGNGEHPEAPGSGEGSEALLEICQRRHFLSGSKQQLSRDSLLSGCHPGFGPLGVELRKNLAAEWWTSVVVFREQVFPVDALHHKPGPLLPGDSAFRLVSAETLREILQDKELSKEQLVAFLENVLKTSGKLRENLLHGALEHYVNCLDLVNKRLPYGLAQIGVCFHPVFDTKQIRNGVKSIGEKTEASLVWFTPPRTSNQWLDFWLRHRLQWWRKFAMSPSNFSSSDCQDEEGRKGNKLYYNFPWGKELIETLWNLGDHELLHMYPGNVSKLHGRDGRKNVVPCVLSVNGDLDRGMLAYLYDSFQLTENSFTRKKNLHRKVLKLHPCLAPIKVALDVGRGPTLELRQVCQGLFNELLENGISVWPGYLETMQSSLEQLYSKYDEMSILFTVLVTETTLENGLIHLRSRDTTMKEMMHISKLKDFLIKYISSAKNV
Assay: DNA polymerization assay, POLγA:G848S mutant
Format: biochemical
Conditions: stimulation of polymerase activity, primed M13mp18 ssDNA, 37° C. 2 hours; read-out: G848S AC50
Protocol: DNA Polymerization Assay to Monitor Effects on Human Wildtype POLγ and Four Disease-Causing Mutant Variants of Human POLγ.
The ability of small molecules to stimulate the polymerase activity of POLγ was analyzed in a quantitative fluorescence SYBR Green I assay with fluorescence intensity (FI) readout.
In the presence of dNTPs, wild type human POLγ and mutant derivatives thereof were incubated with single-stranded, circular M13mp18 ssDNA hybridized to a short DNA oligonucleotide that functions as a primer for initiation of DNA synthesis. POLγ and mutant derivatives thereof will extend the primer and use the M13mp18 molecule as a template to synthesize long stretches of double-stranded DNA. SYBR Green I, which is a double-stranded DNA-binding dye, was used to quantify formation of double-stranded DNA in the reaction. When bound to double-stranded DNA, SYBR Green I fluorescence increases by up to 100-fold.
The assay was performed in the 384-well plate format. Upon addition of compounds, changes in double-stranded DNA synthesis activity can be monitored by following effects on fluorescent intensity.
The reactions also contained the accessory POLγB subunit, and the human mitochondrial single-stranded DNA binding protein (mtSSB).
The DNA template mixture used in the assay contained 0.5 nM primed M13 mp18 ssDNA, 400 nM mtSSB, 0.1 mM Tris-HCl (pH 8.0), 0.1 mM dNTP, 10 mM MgCl2, 0.1 mg/mL BSA, 1 mM TCEP solution, and 0.02% Triton X-100. The DNA template mixture for the wild type protein contained either 100 μM dNTP, 1 μM dNTP, or 0.1 μM dNTP, designated in Table 2 as 100 μM, 1 μM, and 0.1 μM, respectfully.
Microplates with compounds (0.1 μL in each well) to be tested in the assay were prepared from 10 mM compound stocks in 100% DMSO, and equal amounts of DMSO without any compound were added to positive and negative control wells.
The protein mixture was dispensed (5 μL into each well) into compound plates and incubated at 37° C. for 15 minutes. After incubation, 5 μL of the DNA template mixture was dispensed into each well. The plates were then incubated at 37° C. for 2 hours.
During incubation, a combined stop buffer and detection reagent solution was prepared. The buffer contained 25 mM EDTA (pH 8.0), 0.02% Triton X-100, and SYBR Green I [Invitrogen] diluted 10,000× (for fluorescent readout). EDTA will stop the enzymatic reaction by chelating magnesium ions.

Row | Compound | AC50 [µM]
1 | Cc1cc(S(=O)(=O)Nc2cccc(C(=O)N3CCCC4(CC4)C3)c2)c(C)cc1Cl [Example 105, N-(3-(5-azaspiro[2.5]octane-5-carbonyl)phenyl)-4-chloro-2,5-dimethylbenzenesulfonamide] | 9
2 | Cc1cc(S(=O)(=O)Nc2cccc(C(=O)N3CCCOC(C)(C)C3)c2)c(C)cc1Cl [Example 106, 4-chloro-N-(3-(2,2-dimethyl-1,4-oxazepane-4-carbonyl)phenyl)-2,5-dimethylbenzenesulfonamide] | > 100
3 | Cc1cc(S(=O)(=O)Nc2cccc(C(=O)N3CCc4cn[nH]c4C3)c2)c(C)cc1Cl [Example 107, 4-chloro-2,5-dimethyl-N-(3-(4,5,6,7-tetrahydro-1H-pyrazolo[3,4-c]pyridine-6-carbonyl)phenyl)benzenesulfonamide] | 7
4 | Cc1cc(S(=O)(=O)Nc2cccc(C(=O)N3C[C@H](C)[C@@H](N)C3)c2)c(C)cc1Cl [Example 108, N-(3-((3R,4S)-3-amino-4-methylpyrrolidine-1-carbonyl)phenyl)-4-chloro-2,5-dimethylbenzenesulfonamide] | > 100
5 | Cc1cc(S(=O)(=O)Nc2cccc(C(=O)N(C)c3ccccn3)c2)c(C)cc1Cl [Example 109, 3-((4-chloro-2,5-dimethylphenyl)sulfonamido)-N-methyl-N-(pyridin-2-yl)benzamide] | > 100
6 | Cc1cnc(-c2cc(NS(=O)(=O)c3cc(C)c(Cl)cc3C)ccc2Cl)s1 [Example 111, 4-chloro-N-(4-chloro-3-(5-methylthiazol-2-yl)phenyl)-2,5-dimethylbenzenesulfonamide] | > 100
7 | Cc1cc(S(=O)(=O)Nc2cccc(C(=O)N(C(C)C)C3COC3)c2)c(C)cc1Cl [Example 112, 3-((4-chloro-2,5-dimethylphenyl)sulfonamido)-N-isopropyl-N-(oxetan-3-yl)benzamide] | 40
8 | Cc1cc(S(=O)(=O)Nc2cccc(C(=O)N3C[C@@H](F)C[C@H](F)C3)c2)c(C)cc1Cl [Example 115, 4-chloro-N-(3-((3S,5S)-3,5-difluoropiperidine-1-carbonyl)phenyl)-2,5-dimethylbenzenesulfonamide] | > 100
9 | Cc1cc(Cl)ccc1S(=O)(=O)Nc1cccc(C(=O)N2CCC[C@H]2C)c1 [Example 116, (R)-4-chloro-2-methyl-N-(3-(2-methylpyrrolidine-1-carbonyl)phenyl)benzenesulfonamide] | 9
10 | Cc1cc(S(=O)(=O)Nc2cccc(C(=O)N3CCC[C@H]3C)c2)ccc1Cl [Example 117, (R)-4-chloro-3-methyl-N-(3-(2-methylpyrrolidine-1-carbonyl)phenyl)benzenesulfonamide] | > 100
11 | C[C@@H]1CCCN1C(=O)c1cccc(NS(=O)(=O)c2ccc(C(F)(F)F)cc2)c1 [Example 118, (R)-N-(3-(2-methylpyrrolidine-1-carbonyl)phenyl)-4-(trifluoromethyl)benzenesulfonamide] | > 100
12 | Cc1cc(S(=O)(=O)Nc2cccc(C(=O)N3CCCC3)c2)c(C)cc1Cl [Example 119, 4-chloro-2,5-dimethyl-N-(3-(pyrrolidine-1-carbonyl)phenyl) benzenesulfonamide] | 2
13 | O=S(=O)(Nc1csc(-c2ccccc2)n1)c1cccnc1 [Example 121, N-(2-phenylthiazol-4-yl)pyridine-3-sulfonamide] | > 100
14 | O=S(=O)(Nc1csc(-c2ccccc2)n1)c1ccc(F)c(F)c1 [Example 122, 3,4-difluoro-N-(2-phenylthiazol-4-yl)benzenesulfonamide] | > 100
15 | Cc1cc(F)ccc1S(=O)(=O)Nc1csc(-c2ccccc2)n1 [Example 124, 4-fluoro-2-methyl-N-(2-phenylthiazol-4-yl)benzenesulfonamide] | 2

The next lines start with the values.

Row | AC50 [µM] | Compound
16 | 0.4 | Cc1cnc(-c2ccc(Cl)c(NS(=O)(=O)c3cc(C)c(Cl)cc3C)c2)s1 [Example 102, 4-chloro-N-(2-chloro-5-(5-methylthiazol-2-yl)phenyl)-2,5-dimethylbenzenesulfonamide]
17 | 9 | Cc1cnc(-c2cc(NS(=O)(=O)c3cc(C)c(Cl)cc3C)ccc2C)s1 [Example 103, 4-chloro-2,5-dimethyl-N-(4-methyl-3-(5-methylthiazol-2-yl)phenyl)benzenesulfonamide]
18 | 47 | Cc1cc(S(=O)(=O)N[C@@H]2CCCN(C(=O)[C@@H]3CCCN3C)C2)c(C)cc1Cl [Example 104, 4-chloro-2,5-dimethyl-N-((R)-1-(methyl-L-prolyl)piperidin-3-yl)benzenesulfonamide]
19 | > 100 | Cc1cc(NS(=O)(=O)c2cc(C)c(Cl)cc2C)cc(-c2ncc(C)s2)c1 [Example 110, 4-chloro-2,5-dimethyl-N-(3-methyl-5-(5-methylthiazol-2-yl)phenyl)benzenesulfonamide]
20 | 11 | Cc1cc(S(=O)(=O)Nc2cccc(C(=O)N(CC(N)=O)C3CCCC3)c2)c(C)cc1Cl [Example 113, N-(2-amino-2-oxoethyl)-3-((4-chloro-2,5-dimethylphenyl)sulfonamido)-N-cyclopentylbenzamide]
21 | 50 | Cc1cc(S(=O)(=O)Nc2cccc(C(=O)N3CCc4ncnc(C)c4C3)c2)c(C)cc1Cl [Example 114, 4-chloro-2,5-dimethyl-N-(3-(4-methyl-5,6,7,8-tetrahydropyrido [4,3-d]pyrimidine-6-carbonyl)phenyl)benzenesulfonamide]
22 | > 100 | O=S(=O)(Nc1csc(-c2ccccc2)n1)c1ccc(Cl)cc1 [Example 120, 4-chloro-N-(2-phenylthiazol-4-yl)benzenesulfonamide]
23 | 2 | Cc1ccc(S(=O)(=O)Nc2csc(-c3ccccc3)n2)c(C)c1 [Example 123, 2,4-dimethyl-N-(2-phenylthiazol-4-yl)benzenesulfonamide]
24 | 7 | O=S(=O)(Nc1csc(-c2ccccc2)n1)c1ccccc1Cl [Example 125, 2-chloro-N-(2-phenylthiazol-4-yl)benzenesulfonamide]
